In one test the test system is Lewis rats. The experiment in a line: Adjuvant-induced arthritis (AIA) model in rats. The test is classed as in vivo. The settings on record: 30 mg/kg and 100 mg/kg orally once a day for 7 days. The protocol: 100 mg of inactivated Mycobacterium tuberculosis (purchased from BD Difco, No.: 231141) accurately weighed and dissolved in 5 mL of incomplete Freund's adjuvant (IFA) (purchased from Sigma, No.: F5506), and then with 5 mL of physiological saline added, was homogeneously emulsified into 10 mg/mL of complete Freund's adjuvant (CFA). […] Rats were evaluated for the severity of arthritis using an established scoring system ranging from 0 to 4 as follows: 0=no evidence of erythema or swelling; 1=slight erythema or swelling of one of the toe joints; 2=erythema or swelling of more than one toe; 3=swelling of the ankle or wrist joint; 4=swelling of all toes including the ankle joint. All four paws of the rat were scored individually, and the highest score was 16.
The paw volumes of the rats were measured by the drainage method using a plethysmometer (Plethysmometer PV-200, Chengdu Taimeng Science and Technology Co., Ltd.) to determine the volumes below the ankle joints (in mL). The rats were measured for paw volumes every other day from day 10 after primary immunization, i.e. day 1 of the administration. […]

Another test concerns the target T1, JAK3 kinase (Homo sapiens, UniProt P52333).
T1 construct: purchased SignalChem J03-11G
As to the kind of experiment: JAK3 kinase activity inhibition assay (ADP-Glo). The test is classed as biochemical. The settings on record: ATP 10 μM. (ADP-Glo turns the ADP formed in a reaction into a luminescent signal.)

Another test deals with T2, BTK kinase (Homo sapiens, UniProt Q06187).
T2 construct: purchased Invitrogen PV3363
T2 sequence (Q06187 whole entry): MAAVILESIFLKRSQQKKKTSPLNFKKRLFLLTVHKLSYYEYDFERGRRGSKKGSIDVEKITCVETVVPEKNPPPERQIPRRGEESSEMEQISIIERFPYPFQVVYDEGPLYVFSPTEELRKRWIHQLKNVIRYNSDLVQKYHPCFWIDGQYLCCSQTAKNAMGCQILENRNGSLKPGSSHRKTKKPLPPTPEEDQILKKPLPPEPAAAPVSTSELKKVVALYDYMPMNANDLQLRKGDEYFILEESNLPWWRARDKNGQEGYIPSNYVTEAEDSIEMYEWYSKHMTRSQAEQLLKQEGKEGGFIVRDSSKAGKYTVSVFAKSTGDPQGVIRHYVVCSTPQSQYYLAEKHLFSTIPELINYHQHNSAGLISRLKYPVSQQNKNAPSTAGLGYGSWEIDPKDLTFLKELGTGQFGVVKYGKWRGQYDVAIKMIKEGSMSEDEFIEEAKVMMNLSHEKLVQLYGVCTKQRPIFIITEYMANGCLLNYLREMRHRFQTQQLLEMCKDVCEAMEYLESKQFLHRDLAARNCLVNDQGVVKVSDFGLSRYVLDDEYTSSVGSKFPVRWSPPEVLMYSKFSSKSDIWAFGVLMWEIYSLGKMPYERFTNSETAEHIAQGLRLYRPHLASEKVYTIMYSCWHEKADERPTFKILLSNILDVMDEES
The experiment in a line: BTK kinase activity inhibition assay (ADP-Glo). The test is classed as biochemical. The settings on record: ATP 50 μM.

Test [1] relates to p-BTK (pY223) in Ramos cells. The experiment in a line: p-BTK inhibition assay in Ramos cells (Western blot). The settings on record: compound 1 hour, anti-human IgM stimulation. The test is classed as cell-based. The protocol:
Ramos cells (purchased from the Beijing Union Medical College) with starvation culture for 1 hour were treated with the compounds of the present invention for 1 hour, and then rinsed with PBS buffer (pH 7.2) to remove the compounds. Then they were resuspended in 100 μL of serum-free culture medium containing 1 μM of anti-human IgM F(ab′)2 (purchased from SBA company, No.: 2022-01) and stimulated on ice for 10 minutes. The cells were rinsed with PBS buffer (pH 7.2) to remove IgM and resuspended in 100 μL of protein lysis buffer (purchased from Sigma, No.: C2978), and then prepared and quantified the protein sample. 100 μg of the protein sample were taken and loaded on polyacrylamide gels for electrophoresis under 200V of voltage. After electrophoresis, protein blots were transferred to a PVDF membrane. […] The protein expression was detected by coloration using ECL substrate (purchased from GE, No.: RPN2109).
(In general: A western blot detects proteins with antibodies after separation by electrophoresis.)

Some results are limits rather than exact numbers.

T1 sequence (P52333 781-1124 limits assumed): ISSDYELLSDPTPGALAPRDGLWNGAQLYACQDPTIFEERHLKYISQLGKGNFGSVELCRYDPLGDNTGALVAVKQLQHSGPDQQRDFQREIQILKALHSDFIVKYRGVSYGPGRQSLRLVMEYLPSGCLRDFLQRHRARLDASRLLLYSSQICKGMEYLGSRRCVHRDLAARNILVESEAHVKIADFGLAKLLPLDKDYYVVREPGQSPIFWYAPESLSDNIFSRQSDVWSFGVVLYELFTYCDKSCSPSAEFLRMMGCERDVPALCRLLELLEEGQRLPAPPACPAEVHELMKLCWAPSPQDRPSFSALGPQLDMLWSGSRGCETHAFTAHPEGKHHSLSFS

`C=CC(=O)N1CC[C@@H](Nc2nc(Nc3cc(C)ns3)nc3ccsc23)C1` [Example 132, (R)-1-(3-((2-((3-methyl-isothiazol-5-yl)amino)thieno[3,2-d]pyrimidin-4-yl)amino)pyrrolidin-1-yl)prop-2-en-1-one]: in the test on Lewis rats, the “therapeutic effect on arthritis (arthritis severity scores)” value is recorded as “good therapeutic effect on arthritis in the AIA model at the designed doses”. Further, the 50% inhibitory concentration (IC50) (commonly the concentration needed to halve the response being measured) was at most 10 nM against JAK3 kinase and at most 50 nM at BTK kinase. In addition, the “inhibition of expression of p-BTK” value in test [1] was “significantly inhibit the expressions of p-BTK and p-PLCγ2 in Ramos cells in a dose-dependent manner”.

The values are drawn from patent publication US10273242B2, “Compound inhibiting activities of BTK and/or JAK3 kinases” (BEIJING HANMI PHARMACEUTICAL CO., LTD., priority 2013, dated 2019).
